Test results as given in patent publication US20170202844A1, “PEDIATRIC CHEWABLE TABLET CONTAINING ANTIVIRAL AGENT AND METHOD FOR THE PREPARATION THEREOF” (PHARMATHEN S.A., priority 2014, published 2017).
Structures can show the parent of a compound that is named as a salt.

Assays:
[1] = Drug loading into ion exchange resin, evaluated spectrophotometrically; type: physicochemical; settings: for % w/w unbound drug: resin not named
Protocol: Mediums of different pH were examined in order to achieve the maximum drug loading into the resin. For this reason, the pH of solutions was adjusted at 3, 4, 5, 6, and 7. The drug loaded was evaluated spectrophotometrically. […] Buffer pH=7 enhanced more the effect of drug loading.
The next step was to examine the effect of drug loading into the resin for buffer pH=7 of different ion strength. For this reason, buffer pH=7 of normality 0.1N, 0.2N, 1N were prepared and the drug loaded was evaluated spectrophotometrically as before. Buffer pH=7 0.2N was the most suitable medium as the higher drug loading was reached. (61.60%±2.05%).
At this point of studies, the research focused on the type of IER. For this reason, resins of different functional group were examined to reach the higher drug loading. […] As a result, Purolite C100CaMR and Indion 204 were the most preferred resins that could form hydrogen bonds with the cationic center of Valaciclovir and prevent the release in saliva.

[2] = cited from earlier work; for oral bioavailability of acyclovir: oral administration
[3] = cited from earlier work

Row | drug loading ([1]; Buffer pH=7 0.2N) | % w/w unbound drug ([1]; medium pH 3) | % w/w unbound drug ([1]; medium pH 4) | % w/w unbound drug ([1]; medium pH 5) | % w/w unbound drug ([1]; medium pH 6) | % w/w unbound drug ([1]; medium pH 7) | % w/w unbound drug ([1]; water) | Structure (SMILES) | absorption from the gastrointestinal tract ([2]; after oral administration) | conversion to acyclovir and L-valine ([2]; first-pass intestinal and/or hepatic metabolism) | solubility in dichloromethane ([3]; dichloromethane) | solubility in water ([3]; water) | oral bioavailability of acyclovir [2] | water solubility ([2]; in vivo)
1 | 61.60%±2.05% | 79.85%±2.19% | 75.24%±2.91% | 66.69%±2.76% | 61.19%±2.61% | 30.91%±2.53% | 72.61%±2.81% | CC(C)[C@H](N)C(=O)OCCOCn1cnc2c(=O)[nH]c(N)nc21 [Valaciclovir hydrochloride, L-valine, 2-[(2-amino-1,6-dihydro-6-oxo-9H-purin-9-yl)methoxy] ethyl ester, mono hydrochloride] | rapidly absorbed | nearly completely converted | insoluble | soluble |  | 
2 |  |  |  |  |  |  |  | CC(C)[C@H](N)C(=O)OCCOCn1cnc2c(=O)[nH]c(N)nc21 [Valaciclovir, L-valyl acyclovir] |  |  |  |  | high bioavailability of acyclovir | 
3 |  |  |  |  |  |  |  | Nc1nc2c(ncn2COCCO)c(=O)[nH]1 [acyclovir] |  |  |  |  | poor oral bioavailability | poorly water soluble
